What all share (assay): DTP human tumour cell line panel, 48 h
In assay [1] the test system is SF-268.
The subject of assay [2] is OVCAR-5.
In assay [3] the test system is SW-620.
Assay [4] deals with MOLT-4.
The subject of assay [5] is MCF7.
Assay [6] concerns K562.
Assay [7] relates to NCI-H522.
Assay [8] deals with MDA-MB-231.
The test system of assay [9] is OVCAR-4.
The subject of assay [10] is Hs-578T.
Assay [11] concerns COLO 205.
In assay [12] the test system is SK-MEL-28.
Assay [13] concerns NCI-H23.
Assay [14] deals with CAKI-1.
Assay [15] relates to IGROV-1.
The subject of assay [16] is HCC 2998.
Assay [17] has as its system HOP-92.
The test system of assay [18] is EKVX.
For assay [19], the system named is SK-OV-3.
The test system of assay [20] is SK-MEL-2.

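How tested: cells in 96-well plates exposed to compound for 48 hours at five concentrations. Here, GI50 denotes the concentration required for 50% inhibition of growth.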 Active and inactive are the calls of the source. No stated cut-off is given here; in the data, active = GI50 up to about 1.1 µM and inactive = higher.

A word on the GI50: it is the concentration that inhibits growth by half.

For `CN(C(=O)Cc1ccccc1)n1cnn(CC(=O)OC(C)(C)C)c1=S`, the GI50 in assay [1], in [2], in [3], in assay [4], in assay [5] and in assay [6] was > 10 µM (inactive) throughout. Besides, the GI50 in [7], in assay [8], in assay [9], in assay [10], in assay [11] and in assay [12] was > 10 µM (inactive) throughout. The GI50 in assay [13], in assay [14], in [15], in assay [16], in assay [17] and in [18] was > 10 µM (inactive) in each case. The GI50 in assay [19] is > 10 µM (inactive).

`C=CCn1c(=O)c(-c2ccccc2)c(O)c2ccccc21`: the GI50 in assay [1], in [2], in assay [3], in [4], in assay [5] and in assay [6] was > 100 µM (inactive) throughout. Moreover, the GI50 in assay [7], in [8], in [9], in [10], in assay [11] and in [12] was > 100 µM (inactive) in each case. In addition, the GI50 in assay [13], in assay [14], in assay [15], in assay [16], in [17] and in assay [18] was > 100 µM (inactive) throughout.

On to `c1cncc(CNc2ncn[nH]2)c1`, for which the GI50 in [1], in assay [2], in assay [3], in assay [4], in assay [5] and in assay [6] was > 100 µM (inactive) throughout. The GI50 in assay [7], in [8], in [9], in assay [10], in assay [11] and in assay [12] was > 100 µM (inactive) each time. Also, the GI50 in assay [13], in assay [14], in assay [20], in [15], in assay [17] and in [18] was > 100 µM (inactive) each time. Further, the GI50 in assay [19] is > 100 µM (inactive).

Consider `CC(C)Oc1c(C2(c3ccccc3O)SCCCS2)c(=O)c1=O`, for which the GI50 was > 100 µM (inactive) in [1]; 38.7 µM (inactive) in assay [2]; > 100 µM (inactive) in assay [3]; 57.5 µM (inactive) in assay [4]; > 100 µM (inactive) in [5]; 23.6 µM (inactive) in assay [7]. The GI50 in assay [8] is 69.2 µM (inactive); in assay [9] it was > 100 µM (inactive); in assay [10] it was > 100 µM (inactive); in assay [11] it was > 100 µM (inactive); in [12] it was > 100 µM (inactive); in assay [13], 89.3 µM (inactive). Moreover, the GI50 in assay [14] is > 100 µM (inactive); in assay [20], > 100 µM (inactive); in assay [15], 30.3 µM (inactive); in assay [17] it was 19.7 µM (inactive); in assay [18] it was 55.5 µM (inactive); in assay [19], > 100 µM (inactive).

Regarding `COc1ccc(Cc2coc3ccccc3c2=O)cc1OC`, the GI50 was > 100 µM (inactive) in [1]; > 100 µM (inactive) in assay [2]; > 100 µM (inactive) in assay [3]; 49.3 µM (inactive) in assay [4]; 46.2 µM (inactive) in [5]; 72.6 µM (inactive) in assay [6]. Moreover, the GI50 was 43.5 µM (inactive) in assay [7]; 99.1 µM (inactive) in assay [8]; 28.4 µM (inactive) in assay [9]; 56.6 µM (inactive) in assay [10]; > 100 µM (inactive) in assay [11]; > 100 µM (inactive) in [12]. For the same compound, the GI50 in [13] was 28.3 µM (inactive); in [14] it was 11.6 µM (inactive); in [20], > 100 µM (inactive); in assay [15], > 100 µM (inactive); in assay [17], > 100 µM (inactive); in assay [18], 40.6 µM (inactive). The GI50 in assay [19] was > 100 µM (inactive).

In the case of `C[C@H](C/C=C/C(C)(C)O)[C@H]1CC[C@@]2(C)[C@@H]3CC[C@H]4C(C)(C)[C@@H](O)CC[C@@]45C[C@@]35CC[C@]12C`, the GI50 in assay [1] was 1.94 µM (inactive); in assay [2], 14.4 µM (inactive); in [3], 18.4 µM (inactive); in assay [4], 9.91 µM (inactive); in assay [5], 35.2 µM (inactive); in [6] it was 6.31 µM (inactive). Further, the GI50 in assay [7] was 2.37 µM (inactive); in [8] it was 15.4 µM (inactive); in assay [9], 16.9 µM (inactive); in [10] it was 11.2 µM (inactive); in [12], 18.8 µM (inactive); in assay [20], 17.3 µM (inactive). For the same compound, the GI50 was 22.4 µM (inactive) in [15], 11.3 µM (inactive) in assay [17], 14.1 µM (inactive) in [18] and 32.1 µM (inactive) in [19].

Consider `O=C(c1ccccc1)C1C(C(=O)c2ccccc2)C(c2ccccc2)N(c2ccccc2)C1c1ccccc1` (stereo not drawn), for which the GI50 was > 100 µM (inactive) in assay [1]; > 100 µM (inactive) in [2]; > 100 µM (inactive) in assay [3]; > 100 µM (inactive) in [4]; > 100 µM (inactive) in [5]; 46.7 µM (inactive) in [6]. In addition, the GI50 is > 100 µM (inactive) in assay [7]; > 100 µM (inactive) in assay [8]; 48 µM (inactive) in assay [10]; > 100 µM (inactive) in assay [11]; > 100 µM (inactive) in [12]; > 100 µM (inactive) in assay [13]. Further, the GI50 in assay [14], in assay [20], in assay [15], in [16], in [17] and in assay [18] was > 100 µM (inactive) throughout.

Turning to `CC1(C)S[C@@H]2[C@H](NC(=O)[C@H](N)c3ccccc3)C(=O)N2[C@H]1C(=O)O` [AMPICILLIN], the GI50 in [1] is > 100 µM (inactive); in assay [2] it was > 100 µM (inactive); in [3], > 100 µM (inactive); in [4] it was > 100 µM (inactive); in [5], > 100 µM (inactive); in assay [7], 40.1 µM (inactive). The GI50 in assay [8] is > 100 µM (inactive); in assay [10], 63.8 µM (inactive); in assay [11], > 100 µM (inactive); in assay [12], > 100 µM (inactive); in assay [13] it was > 100 µM (inactive); in assay [14], > 100 µM (inactive). Further, the GI50 in [20], in assay [15], in [16], in [17] and in [18] was > 100 µM (inactive) each time.

As to `CCCCCCC(C)CC(CCCCCC)NCCOC(=O)c1ccc([N+](=O)[O-])cc1` (stereo not drawn), the GI50 in assay [1] is 13.8 µM (inactive); in assay [2] it was 18.5 µM (inactive); in assay [3], 12.8 µM (inactive); in assay [5], 7.16 µM (inactive); in assay [7] it was 12.1 µM (inactive); in [8], 6.71 µM (inactive). The GI50 in [9] was 11.5 µM (inactive); in assay [10], 17.2 µM (inactive); in assay [11] it was 3.18 µM (inactive); in [13], 14.6 µM (inactive); in assay [20], 14.1 µM (inactive); in assay [15], 12.3 µM (inactive). The GI50 was 2.02 µM (inactive) in [16], 5.82 µM (inactive) in assay [17], 8.71 µM (inactive) in assay [18] and 14.9 µM (inactive) in [19].

Regarding `COc1cccc(-c2cc(O)c3c(C)cc(C)nc3n2)c1`, the GI50 in assay [1] is 0.578 µM (active); in [2], 2.57 µM (inactive); in assay [3], 0.333 µM (active); in [4] it was 0.531 µM (active); in [5], 0.442 µM (active); in [6], 0.158 µM (active). Also, the GI50 is 0.521 µM (active) in assay [7]; 1.6 µM (inactive) in assay [8]; 4.09 µM (inactive) in assay [9]; 0.538 µM (active) in [10]; 0.21 µM (active) in assay [11]; 0.83 µM (active) in assay [12]. For the same compound, the GI50 is 0.746 µM (active) in assay [13]; 0.615 µM (active) in assay [20]; 0.486 µM (active) in assay [15]; 0.682 µM (active) in assay [16]; 2.74 µM (inactive) in [17]; 3.85 µM (inactive) in assay [18]. For the same compound, the GI50 in [19] is 0.468 µM (active).

Take `CC(C)c1cc(C(F)(F)F)nc(NNc2nc(C(C)C)cc(C(F)(F)F)n2)n1`: the GI50 in [1], in [2], in assay [3], in [4], in [5] and in assay [6] was > 100 µM (inactive) each time. For the same compound, the GI50 in [7] is > 100 µM (inactive); in assay [8], 65.3 µM (inactive); in assay [9], 72.6 µM (inactive); in assay [10], 79.4 µM (inactive); in [11], > 100 µM (inactive); in [12], > 100 µM (inactive). For the same compound, the GI50 in assay [13] is 53.8 µM (inactive); in assay [14], 64.7 µM (inactive); in assay [20] it was > 100 µM (inactive); in [15] it was > 100 µM (inactive); in [17], > 100 µM (inactive); in assay [18], 67.5 µM (inactive). In [19], the GI50 is 33.7 µM (inactive).

Source of the values: ChEMBL document CHEMBL1201862, “PubChem BioAssay data set” (2004).
